Tests used:
velvetleaf = assay: Test B pre/postemergence velvetleaf; type: in vivo, Abutilon theophrasti
Outline: (§1)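 Herbicidal effect was estimated by eye on a ten-point control scale after plants spent twelve to sixteen days in a greenhouse following soil or foliar treatment. Foliar sprays targeted plants at one to four leaves; all doses were formulated in a non-phytotoxic solvent with surfactant.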

duck salad = assay: Test B flood test duck salad; type: in vivo, Heteranthera limosa
Outline: (§2)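 Plants were grown to the 2-leaf stage before treatment with test chemical, then held in a greenhouse for twelve to sixteen days. Injury was visually rated against untreated controls on a 0–10 scale, where 0 is no effect and 10 is complete control.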

rape = assay: Test B pre/postemergence rape; type: in vivo, Brassica napus
Outline: as §1

bamyardgrass = assay: Test B flood test barnyardgrass; type: in vivo, Echinochloa crus-galli
Outline: as §2

blackgrass = assay: Test B pre/postemergence blackgrass; type: in vivo, Alopecurus myosuroides
Outline: as §1

rice = assay: Test B flood test rice; type: in vivo, Oryza sativa
Outline: as §2

giant foxtail = assay: Test B pre/postemergence giant foxtail; type: in vivo, Setaria faberii
Outline: as §1

surinam grass = assay: Test B pre/postemergence surinam grass; type: in vivo, Brachiaria decumbens
Outline: as §1

wild oat = assay: Test B pre/postemergence wild oat; type: in vivo, Avena fatua
Outline: as §1

corn = assay: Test B pre/postemergence corn; type: in vivo, Zea mays
Outline: as §1

crabgrass = assay: Test B pre/postemergence crabgrass; type: in vivo, Digitaria sanguinalis
Outline: as §1

wheat = assay: Test B pre/postemergence wheat; type: in vivo, Triticum aestivum
Outline: as §1

purple nutsedge = assay: Test B pre/postemergence purple nutsedge; type: in vivo, Cyperus rotundus
Outline: as §1

sugar beet = assay: Test B pre/postemergence sugar beet; type: in vivo, Beta vulgaris
Outline: as §1

pigweed = assay: Test B pre/postemergence pigweed; type: in vivo, Amaranthus retroflexus
Outline: as §1

cocklebur = assay: Test B pre/postemergence cocklebur; type: in vivo, Xanthium strumarium
Outline: as §1

smallflower flatsedge = assay: Test B flood test smallflower flatsedge; type: in vivo, Cyperus difformis
Outline: as §2

morningglory = assay: Test B pre/postemergence morningglory; type: in vivo, Ipomoea hederacea
Outline: as §1

soybean = assay: Test B pre/postemergence soybean; type: in vivo, Glycine max
Outline: as §1

[1] = Postemergence, Rate 62 g/ha, scale 0 to 10, 0 is no effect, 10 is complete control
[2] = Postemergence, Rate 125 g/ha, scale of 0 to 10 where 0 is no effect and 10 is complete control
[3] = Preemergence, Rate 62 g/ha, scale of 0 to 10 where 0 is no effect and 10 is complete control
[4] = Preemergence, Rate 125 g/ha, scale of 0 to 10 where 0 is no effect and 10 is complete control
[5] = Preemergence, Rate 250 g/ha, scale 0 to 10 (0 no effect, 10 complete control)
[6] = Preemergence, Rate 500 g/ha, scale of 0 to 10 where 0 is no effect and 10 is complete control
[7] = Rate 500 g/ha, Postemergence, scale 0 to 10, 0 is no effect, 10 is complete control
[8] = Rate 62 g/ha, flood test species, Pre-emergence, visual evaluation after twelve to sixteen days
[9] = Rate 125 g/ha, under heading Pre-emergence, flood test species, visual evaluation after twelve to sixteen days
[10] = Rate 250 g/ha, Pre-emergence (flood test species), scale 0 to 10, 0 is no effect, 10 is complete control
[11] = Rate 500 g/ha, Pre-emergence section of Table B, 0 to 10 scale (0 no effect, 10 complete control)
[12] = Postemergence, Rate 250 g/ha, scale of 0 to 10, 0 is no effect, 10 is complete control

With `C#CC(C)n1c(=O)on(C(=O)N(c2ccc(F)cc2F)C(C)C)c1=O` (racemic) [Compound 657] the “Plant response rating, Velvetleaf” value (velvetleaf; [1]) was 2, the “Velvetleaf plant response rating” value (velvetleaf; [2]) was 3 and the “Velvetleaf plant response rating” value (velvetleaf; [3]) was 3. For the same compound, the “Velvetleaf plant response rating” value (velvetleaf; [4]) was 4, the “Plant response rating, Velvetleaf” value (velvetleaf; [5]) was 8 and the “Plant response rating, Velvetleaf” value (velvetleaf; [6]) was 10. The “Velvetleaf plant response rating” value (velvetleaf; [7]) was 4, the “Plant response rating, Ducksalad (0 to 10 scale, 0 is no effect, 10 is complete control)” value (duck salad; [8]) was 0 and the “Ducksalad plant response rating (0 to 10 scale, 0 is no effect, 10 is complete control)” value (duck salad; [9]) was 0. For the same compound, the “Ducksalad plant response rating” value (duck salad; [10]) was 0, the “Ducksalad plant response rating” value (duck salad; [11]) was 0 and the “Plant response rating, Rape” value (rape; [1]) was 0. The “Rape plant response rating” value (rape; [2]) was 2, the “Rape plant response rating” value (rape; [3]) was 3 and the “Rape plant response rating” value (rape; [4]) was 3. The “Plant response rating, Rape” value (rape; [5]) was 10, the “Plant response rating, Rape” value (rape; [6]) was 10 and the “Rape plant response rating” value (rape; [7]) was 3. The “Plant response rating, Barnyardgrass (0 to 10 scale, 0 is no effect, 10 is complete control)” value (bamyardgrass; [8]) was 0, the “Barnyardgrass plant response rating (0 to 10 scale, 0 is no effect, 10 is complete control)” value (bamyardgrass; [9]) was 0 and the “Barnyardgrass plant response rating” value (bamyardgrass; [10]) was 0. The “Barnyardgrass plant response rating” value (bamyardgrass; [11]) was 0, the “Plant response rating, Blackgrass” value (blackgrass; [1]) was 6 and the “Blackgrass plant response rating” value (blackgrass; [2]) was 8. The “Blackgrass plant response rating” value (blackgrass; [12]) was 8, the “Blackgrass plant response rating” value (blackgrass; [3]) was 5 and the “Blackgrass plant response rating” value (blackgrass; [4]) was 9. The “Plant response rating, Blackgrass” value (blackgrass; [5]) was 7, the “Plant response rating, Blackgrass” value (blackgrass; [6]) was 9 and the “Blackgrass plant response rating” value (blackgrass; [7]) was 8. The “Plant response rating, Rice (0 to 10 scale, 0 is no effect, 10 is complete control)” value (rice; [8]) was 0, the “Rice plant response rating (0 to 10 scale, 0 is no effect, 10 is complete control)” value (rice; [9]) was 0 and the “Rice plant response rating” value (rice; [10]) was 0. For the same compound, the “Rice plant response rating” value (rice; [11]) was 0, the “Plant response rating, Giant foxtail” value (giant foxtail; [1]) was 5 and the “Giant foxtail plant response rating” value (giant foxtail; [2]) was 8. The “Giant foxtail plant response rating” value (giant foxtail; [12]) was 7, the “Giant foxtail plant response rating” value (giant foxtail; [3]) was 10 and the “Giant foxtail plant response rating” value (giant foxtail; [4]) was 10. For the same compound, the “Plant response rating, Giant foxtail” value (giant foxtail; [5]) was 9, the “Plant response rating, Giant foxtail” value (giant foxtail; [6]) was 9 and the “Giant foxtail plant response rating” value (giant foxtail; [7]) was 8. For the same compound, the “Plant response rating, B. signalgrass” value (surinam grass; [1]) was 0, the “Plant response rating, B. signalgrass” value (surinam grass; [2]) was 2 and the “B. signalgrass plant response rating” value (surinam grass; [12]) was 4. The “B. signalgrass plant response rating” value (surinam grass; [3]) was 2, the “B. signalgrass plant response rating” value (surinam grass; [4]) was 8 and the “Plant response rating, B. signalgrass” value (surinam grass; [5]) was 9. For the same compound, the “Plant response rating, B. signalgrass” value (surinam grass; [6]) was 10, the “B. signalgrass plant response rating” value (surinam grass; [7]) was 6 and the “Plant response rating, Wild oats” value (wild oat; [1]) was 1. For the same compound, the “Wild oats plant response rating” value (wild oat; [2]) was 2, the “Wild oats plant response rating” value (wild oat; [3]) was 3 and the “Wild oats plant response rating” value (wild oat; [4]) was 6. The “Plant response rating, Wild oats” value (wild oat; [5]) was 8, the “Plant response rating, Wild oats” value (wild oat; [6]) was 8 and the “Wild oats plant response rating” value (wild oat; [7]) was 2. For the same compound, the “Plant response rating, Corn” value (corn; [1]) was 1, the “Corn plant response rating” value (corn; [2]) was 1 and the “Corn plant response rating” value (corn; [12]) was 1. For the same compound, the “Corn plant response rating” value (corn; [3]) was 0, the “Corn plant response rating” value (corn; [4]) was 1 and the “Plant response rating, Corn” value (corn; [6]) was 8. The “Corn plant response rating” value (corn; [7]) was 1, the “Plant response rating, Crabgrass” value (crabgrass; [1]) was 3 and the “Crabgrass plant response rating” value (crabgrass; [2]) was 8. The “Crabgrass plant response rating” value (crabgrass; [12]) was 9, the “Crabgrass plant response rating” value (crabgrass; [3]) was 3 and the “Crabgrass plant response rating” value (crabgrass; [4]) was 10. The “Plant response rating, Crabgrass” value (crabgrass; [5]) was 9, the “Plant response rating, Crabgrass” value (crabgrass; [6]) was 9 and the “Crabgrass plant response rating” value (crabgrass; [7]) was 9. For the same compound, the “Plant response rating, Wheat” value (wheat; [1]) was 0, the “Wheat plant response rating” value (wheat; [2]) was 0 and the “Wheat plant response rating” value (wheat; [3]) was 0. For the same compound, the “Wheat plant response rating” value (wheat; [4]) was 0, the “Plant response rating, Wheat” value (wheat; [5]) was 0 and the “Plant response rating, Wheat” value (wheat; [6]) was 7. For the same compound, the “Wheat plant response rating” value (wheat; [7]) was 5, the “Nutsedge plant response rating” value (purple nutsedge; [2]) was 3 and the “Nutsedge plant response rating” value (purple nutsedge; [3]) was 0. The “Nutsedge plant response rating” value (purple nutsedge; [4]) was 0, the “Plant response rating, Nutsedge” value (purple nutsedge; [5]) was 5 and the “Plant response rating, Nutsedge” value (purple nutsedge; [6]) was 6. For the same compound, the “Plant response rating, Sugarbeets” value (sugar beet; [1]) was 0, the “Sugarbeets plant response rating” value (sugar beet; [2]) was 0 and the “Sugarbeets plant response rating” value (sugar beet; [3]) was 7. The “Sugarbeets plant response rating” value (sugar beet; [4]) was 7, the “Plant response rating, Sugarbeets” value (sugar beet; [5]) was 10 and the “Plant response rating, Sugarbeets” value (sugar beet; [6]) was 9. For the same compound, the “Sugarbeets plant response rating” value (sugar beet; [7]) was 3, the “Plant response rating, Redroot pigweed” value (pigweed; [1]) was 0 and the “Redroot pigweed plant response rating” value (pigweed; [2]) was 2. The “Redroot pigweed plant response rating” value (pigweed; [3]) was 7, the “Redroot pigweed plant response rating” value (pigweed; [4]) was 10 and the “Plant response rating, Redroot pigweed” value (pigweed; [5]) was 10. For the same compound, the “Plant response rating, Redroot pigweed” value (pigweed; [6]) was 10, the “Redroot pigweed plant response rating” value (pigweed; [7]) was 7 and the “Plant response rating, Cocklebur” value (cocklebur; [1]) was 0. For the same compound, the “Cocklebur plant response rating” value (cocklebur; [2]) was 2, the “Cocklebur plant response rating” value (cocklebur; [12]) was 4 and the “Cocklebur plant response rating” value (cocklebur; [3]) was 0. For the same compound, the “Cocklebur plant response rating” value (cocklebur; [4]) was 0, the “Plant response rating, Cocklebur” value (cocklebur; [5]) was 2 and the “Plant response rating, Cocklebur” value (cocklebur; [6]) was 2. For the same compound, the “Cocklebur plant response rating” value (cocklebur; [7]) was 5, the “Plant response rating, S. Flatsedge (0 to 10 scale, 0 is no effect, 10 is complete control)” value (smallflower flatsedge; [8]) was 0 and the “S. Flatsedge plant response rating (0 to 10 scale, 0 is no effect, 10 is complete control)” value (smallflower flatsedge; [9]) was 0. The “S. Flatsedge plant response rating” value (smallflower flatsedge; [10]) was 0, the “S. Flatsedge plant response rating” value (smallflower flatsedge; [11]) was 0 and the “Plant response rating, Morningglory” value (morningglory; [1]) was 2. For the same compound, the “Morningglory plant response rating” value (morningglory; [2]) was 5, the “Morningglory plant response rating” value (morningglory; [12]) was 5 and the “Morningglory plant response rating” value (morningglory; [3]) was 1. For the same compound, the “Morningglory plant response rating” value (morningglory; [4]) was 1, the “Plant response rating, Morningglory” value (morningglory; [5]) was 4 and the “Plant response rating, Morningglory” value (morningglory; [6]) was 6. The “Morningglory plant response rating” value (morningglory; [7]) was 9, the “Plant response rating, Soybean” value (soybean; [1]) was 1 and the “Soybean plant response rating” value (soybean; [2]) was 1. The “Soybean plant response rating” value (soybean; [3]) was 0, the “Soybean plant response rating” value (soybean; [4]) was 0 and the “Plant response rating, Soybean” value (soybean; [6]) was 3.
